Activity calls are given as the source filed them. The rule behind the calls is not given here.
Assays:
Botrytis cinerea [1] = assay: Curative antifungal activity against Botryotinia fuckeliana inoculated in strawberry fruit assessed as disease control efficacy at 50 ug AI/ml applied 24 hr post-inoculation relative to control; type: functional
Botrytis cinerea [2] = assay: Curative antifungal activity against Botryotinia fuckeliana inoculated in strawberry fruit assessed as disease severity measuring lesion diameter at 50 ug AI/ml applied 24 hr post-inoculation; type: functional
Botrytis cinerea [3] = assay: Curative antifungal activity against Botryotinia fuckeliana inoculated in strawberry fruit assessed as disease severity measuring lesion diameter at 10 ug AI/ml applied 24 hr post-inoculation; type: functional
Botrytis cinerea [4] = assay: Curative antifungal activity against Botryotinia fuckeliana inoculated in strawberry fruit assessed as disease severity measuring lesion diameter at 1 ug AI/ml applied 24 hr post-inoculation; type: functional
Botrytis cinerea [5] = assay: Curative antifungal activity against Botryotinia fuckeliana inoculated in strawberry fruit assessed as disease control efficacy at 1 ug AI/ml applied 48 hr post-inoculation relative to control; type: functional
Botrytis cinerea [6] = assay: Curative antifungal activity against Botryotinia fuckeliana inoculated in strawberry fruit assessed as disease severity measuring lesion diameter at 10 ug AI/ml applied 48 hr post-inoculation; type: functional
Botrytis cinerea [7] = assay: Antifungal activity against Botryotinia fuckeliana grown on succinate medium assessed as inhibition of mycelial growth at 10 ug/ml after 10 days; type: functional, organism-based
Botrytis cinerea [8] = assay: Antifungal activity against Botryotinia fuckeliana grown on PDA medium assessed as inhibition of mycelial growth at 10 ug/ml after 10 days; type: functional, organism-based
Botrytis cinerea [9] = assay: Curative antifungal activity against Botryotinia fuckeliana inoculated in strawberry fruit assessed as disease control efficacy at 100 ug AI/ml applied 96 hr post-inoculation relative to control; type: functional
Botrytis cinerea [10] = assay: Antifungal activity against Botryotinia fuckeliana grown on succinate medium assessed as inhibition of spore germination at 5 ug/ml after 10 days; type: functional, organism-based
Botrytis cinerea [11] = assay: Antifungal activity against Botryotinia fuckeliana grown on water agar assessed as inhibition of germ tube growth at 1 ug/ml after 10 days; type: functional, organism-based
Botrytis cinerea [12] = assay: Antifungal activity against Botryotinia fuckeliana grown on water agar assessed as inhibition of spore germination at 1 ug/ml after 10 days; type: functional, organism-based
Botrytis cinerea [13] = assay: Protective antifungal activity against Botryotinia fuckeliana inoculated in fungicide-applied strawberry fruit assessed as disease severity measuring lesion diameter at 100 ug AI/ml applied 96 hr prior-inoculation; type: functional
Botrytis cinerea [14] = assay: Protective antifungal activity against Botryotinia fuckeliana inoculated in fungicide-applied strawberry fruit assessed as disease severity measuring lesion diameter at 50 ug AI/ml applied 96 hr prior-inoculation; type: functional
Botrytis cinerea [15] = assay: Curative antifungal activity against Botryotinia fuckeliana inoculated in strawberry fruit assessed as disease severity measuring lesion diameter at 10 ug AI/ml applied 96 hr post-inoculation; type: functional
Botrytis cinerea [16] = assay: Protective antifungal activity against Botryotinia fuckeliana inoculated in fungicide-applied strawberry fruit assessed as disease severity measuring lesion diameter at 50 ug AI/ml applied 24 hr prior inoculation; type: functional
Botrytis cinerea [17] = assay: Protective antifungal activity against Botryotinia fuckeliana inoculated in fungicide-applied strawberry fruit assessed as disease severity measuring lesion diameter at 10 ug AI/ml applied 24 hr prior inoculation; type: functional
Botrytis cinerea [18] = assay: Protective antifungal activity against Botryotinia fuckeliana inoculated in fungicide-applied strawberry fruit assessed as disease control efficacy at 50 ug AI/ml applied 48 hr prior inoculation relative to control; type: functional
Botrytis cinerea [19] = assay: Protective antifungal activity against Botryotinia fuckeliana inoculated in fungicide-applied strawberry fruit assessed as disease control efficacy at 10 ug AI/ml applied 48 hr prior inoculation relative to control; type: functional
Botrytis cinerea [20] = assay: Protective antifungal activity against Botryotinia fuckeliana inoculated in fungicide-applied strawberry fruit assessed as disease control efficacy at 1 ug AI/ml applied 48 hr prior inoculation relative to control; type: functional
Botrytis cinerea [21] = assay: Protective antifungal activity against Botryotinia fuckeliana inoculated in fungicide-applied strawberry fruit assessed as disease severity measuring lesion diameter at 10 ug AI/ml applied 48 hr prior inoculation; type: functional
Botrytis cinerea [22] = assay: Protective antifungal activity against Botryotinia fuckeliana inoculated in fungicide-applied strawberry fruit assessed as disease control efficacy at 50 ug AI/ml applied 96 hr prior-inoculation relative to control; type: functional
Botrytis cinerea [23] = assay: Protective antifungal activity against Botryotinia fuckeliana inoculated in fungicide-applied strawberry fruit assessed as disease control efficacy at 1 ug AI/ml applied 24 hr prior inoculation relative to control; type: functional

O=C(NCCc1ncc(C(F)(F)F)cc1Cl)c1ccccc1C(F)(F)F [FLUOPYRAM]
Efficacy (Botrytis cinerea [1]): 77.3% | Activity (Botrytis cinerea [2]): 4.2 mm | Activity (Botrytis cinerea [3]): 5.7 mm | Activity (Botrytis cinerea [4]): 8.8 mm | Efficacy (Botrytis cinerea [5]): 63.3% | Activity (Botrytis cinerea [6]): 3.5 mm | growth inhibition (GI) (Botrytis cinerea [7]): inactive | growth inhibition (GI) (Botrytis cinerea [8]): inactive | Efficacy (Botrytis cinerea [9]): 62.5% | growth inhibition (GI) (Botrytis cinerea [10]): Active | growth inhibition (GI) (Botrytis cinerea [11]): Active | growth inhibition (GI) (Botrytis cinerea [12]): Active | Activity (Botrytis cinerea [13]): 0.7 mm | Activity (Botrytis cinerea [14]): 3.9 mm | Activity (Botrytis cinerea [15]): 11.1 mm | Activity (Botrytis cinerea [16]): 1.1 mm | Activity (Botrytis cinerea [17]): 4.2 mm | Efficacy (Botrytis cinerea [18]): 87.7% | Efficacy (Botrytis cinerea [19]): 70.8% | Efficacy (Botrytis cinerea [20]): 54.3% | Activity (Botrytis cinerea [21]): 5.5 mm | Efficacy (Botrytis cinerea [22]): 79.2% | Efficacy (Botrytis cinerea [23]): 66.4%
